Reference: PubChem BioAssay AID256 (DTP/NCI, 2004)
“And” between values parts separate entries of the source, which are not always exact repeats. Identical values can stand only once. Toxic doses and inconclusive results are not listed. Starred links: 1 amine or outer side, 2 acyl side, 3 side chain; linkers in the order of their positions; H or OH if unused. Positions of bridges follow the written chain, without caps; N, C: chain ends. Non-standard residues stand in square brackets, D forms with d. Residues, ends and D or L forms follow the SMILES beside them. Chains are numbered I, II in the order given. Actinocin(1to9) = Cc1c2oc3c(C)ccc(C(=O)[*:2])c3nc-2c(C(=O)[*:1])c(N)c1=O; NMeV = CN[CH](C(=O)O)C(C)C; Aze = O=C(O)[CH]1CCN1; Sar = CNCC(=O)O

Test system: CD2F1 mice, L1210 leukemia ip, survival T/C
Experiment: NCI In Vivo Anticancer Drug Screen. Data for tumor model L1210 Leukemia (intraperitoneal) in CD2F1 (CDF1) mice
Settings: higher = longer survival
Method in brief: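 Each value reflects a quotient of treated over vehicle control outcomes in mice with a transplanted tumor.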

[1] = endpoint: mean survival time, dose: 6.25 mg/kg/injection, schedule: Q01DX009 (ip), vehicle: saline with Tween-80
[2] = endpoint: mean survival time, dose: 100.0 mg/kg/injection, schedule: Q01DX009 (ip), vehicle: saline with Tween-80
[3] = endpoint: mean survival time, dose: 100.0 mg/kg/injection, schedule: Q04DX003 (ip), vehicle: saline with Tween-80
[4] = endpoint: mean survival time, dose: 200.0 mg/kg/injection, schedule: Q01DX009 (ip), vehicle: saline with Tween-80
[5] = endpoint: mean survival time, dose: 200.0 mg/kg/injection, schedule: Q04DX003 (ip), vehicle: saline with Tween-80

Question: With `Cc1c2oc3c(C)ccc(C(=O)NC4C(=O)NC(C(C)C)C(=O)N5CCCC5C(=O)N(C)CC(=O)N(C)C(C(C)C)C(=O)OC4C)c3nc-2c(C(=O)NC2C(=O)NC(C(C)C)C(=O)N3CCC3C(=O)N(C)CC(=O)N(C)C(C(C)C)C(=O)OC2C)c(N)c1=O` (configuration not stated) (I: TV[Aze][Sar][NMeV] / II: TVP[Sar][NMeV]; ester I:1-I:C, II:1-II:C; linker I:N-II:N via Actinocin(1to9); configuration not given here) as the molecule, how does the T/C (endpoint: mean survival time, dose: 37.0 micrograms/kg/injection, schedule: Q01DX009 (ip), vehicle: saline + alcohol) read?
Answer: 103 % of control

Question: And the T/C (endpoint: mean survival time, dose: 75.0 micrograms/kg/injection, schedule: Q01DX009 (ip), vehicle: saline + alcohol)?
Answer: 117 % of control

Question: And the T/C (endpoint: mean survival time, dose: 300.0 micrograms/kg/injection, schedule: Q01DX009 (ip), vehicle: saline + alcohol)?
Answer: 151 % of control

Question: What about the T/C (endpoint: mean survival time, dose: 600.0 micrograms/kg/injection, schedule: Q01DX009 (ip), vehicle: saline + alcohol) of the same molecule?
Answer: 109 % of control

Question: And the T/C (endpoint: median survival time, dose: 12.5 micrograms/kg/injection, schedule: Q01DX009 (ip), vehicle: saline)?
Answer: 108 % of control

Question: And the T/C (endpoint: median survival time, dose: 25.0 micrograms/kg/injection, schedule: Q01DX009 (ip), vehicle: saline)?
Answer: 115 % of control

Question: And the T/C (endpoint: median survival time, dose: 50.0 micrograms/kg/injection, schedule: Q01DX009 (ip), vehicle: saline)?
Answer: 115 % of control

Question: And the T/C (endpoint: median survival time, dose: 100.0 micrograms/kg/injection, schedule: Q01DX009 (ip), vehicle: saline)?
Answer: 123 % of control

Question: And the T/C (endpoint: median survival time, dose: 200.0 micrograms/kg/injection, schedule: Q01DX009 (ip), vehicle: saline)?
Answer: 150 % of control

Question: And the T/C (endpoint: median survival time, dose: 400.0 micrograms/kg/injection, schedule: Q01DX009 (ip), vehicle: saline)?
Answer: 91 % of control

Question: Which results are given for `C=C[Si](c1ccccc1)(c1ccccc1)c1ccccc1`?
Answer: T/C (endpoint: mean survival time, dose: 75.0 mg/kg/injection, schedule: Q04DX003 (ip), vehicle: saline): 95 % of control; T/C (endpoint: mean survival time, dose: 150.0 mg/kg/injection, schedule: Q04DX003 (ip), vehicle: saline): 97 % of control; T/C (endpoint: mean survival time, dose: 300.0 mg/kg/injection, schedule: Q04DX003 (ip), vehicle: saline): 97 % of control

Question: `COC1CC2C[CH]([Hg][Cl])C1C2` (configuration not stated) was tested. Which T/C (endpoint: mean survival time, dose: 0.75 mg/kg/injection, schedule: Q01DX009 (ip), vehicle: saline) did it give?
Answer: 106 % of control

Question: What about the T/C (endpoint: mean survival time, dose: 1.5 mg/kg/injection, schedule: Q01DX009 (ip), vehicle: saline) of the same molecule?
Answer: 106 % of control

Question: And the T/C (endpoint: mean survival time, dose: 3.0 mg/kg/injection, schedule: Q01DX009 (ip), vehicle: saline)?
Answer: 103 % of control

Question: What about the T/C (endpoint: mean survival time, dose: 3.13 mg/kg/injection, schedule: Q01DX009 (ip), vehicle: saline with Tween-80) of the same molecule?
Answer: 97 % of control

Question: What about the T/C [1] of the same molecule?
Answer: 103 % of control

Question: With `Nc1[nH]c(=O)ncc1C(=O)NC(CO)C(=O)O` (configuration not stated) as the molecule, how does the T/C [1] read?
Answer: 100 % of control

Question: And the T/C (endpoint: mean survival time, dose: 12.5 mg/kg/injection, schedule: Q01DX009 (ip), vehicle: saline with Tween-80)?
Answer: 102 % of control

Question: And the T/C (endpoint: mean survival time, dose: 25.0 mg/kg/injection, schedule: Q01DX009 (ip), vehicle: saline with Tween-80)?
Answer: 104 % of control

Question: `Nc1nc(Br)nc2c1ncn2C1CC(O)C(CO)O1` (configuration not stated) was tested. Which T/C (endpoint: median survival time, dose: 3.8 mg/kg/injection, schedule: Q03HX009 (ip), vehicle: saline) did it give?
Answer: 120 % of control

Question: And the T/C (endpoint: median survival time, dose: 10.0 mg/kg/injection, schedule: Q03HX024 (ip), vehicle: saline)?
Answer: 152 % of control

Question: And the T/C (endpoint: median survival time, dose: 15.0 mg/kg/injection, schedule: Q03HX009 (ip), vehicle: water)?
Answer: 163 % of control

Question: And the T/C (endpoint: median survival time, dose: 20.0 mg/kg/injection, schedule: Q03HX024 (ip), vehicle: saline)?
Answer: 164 % of control and 174 % of control

Question: And the T/C (endpoint: median survival time, dose: 30.0 mg/kg/injection, schedule: Q03HX009 (ip), vehicle: suspension in saline)?
Answer: 195 % of control

Question: What about the T/C (endpoint: median survival time, dose: 30.0 mg/kg/injection, schedule: Q03HX009 (ip), vehicle: water) of the same molecule?
Answer: 237 % of control

Question: And the T/C (endpoint: median survival time, dose: 30.0 mg/kg/injection, schedule: Q03HX024 (ip), vehicle: saline)?
Answer: 329 % of control

Question: What about the T/C (endpoint: median survival time, dose: 40.0 mg/kg/injection, schedule: Q03HX024 (ip), vehicle: saline) of the same molecule?
Answer: 728 % of control

Question: And the T/C (endpoint: median survival time, dose: 53.0 mg/kg/injection, schedule: Q03DX003 (ip), vehicle: saline)?
Answer: 121 % of control

Question: What about the T/C (endpoint: median survival time, dose: 60.0 mg/kg/injection, schedule: Q03HX009 (ip), vehicle: suspension in saline) of the same molecule?
Answer: 243 % of control

Question: And the T/C (endpoint: median survival time, dose: 60.0 mg/kg/injection, schedule: Q03HX009 (ip), vehicle: water)?
Answer: 221 % of control

Question: What about the T/C (endpoint: median survival time, dose: 80.0 mg/kg/injection, schedule: Q03DX003 (ip), vehicle: saline) of the same molecule?
Answer: 118 % of control

Question: What about the T/C (endpoint: median survival time, dose: 120.0 mg/kg/injection, schedule: Q03DX003 (ip), vehicle: saline) of the same molecule?
Answer: 122 % of control

Question: What about the T/C (endpoint: median survival time, dose: 120.0 mg/kg/injection, schedule: Q03HX009 (ip), vehicle: suspension in saline) of the same molecule?
Answer: 193 % of control

Question: With `CCOC(=O)C1CN(Cc2ccccc2)CCC1=O` (configuration not stated) as the molecule, how does the T/C (endpoint: mean survival time, dose: 100.0 mg/kg/injection, schedule: Q01DX009 (ip), vehicle: saline) read?
Answer: 100 % of control

Question: And the T/C (endpoint: mean survival time, dose: 200.0 mg/kg/injection, schedule: Q01DX009 (ip), vehicle: saline)?
Answer: 103 % of control

Question: How did the T/C (endpoint: mean survival time, dose: 6.25 mg/kg/injection, schedule: Q01DX009 (ip), vehicle: Klucel (hydroxypropylcellulose) (HPC)) turn out when `O=[N+]([O-])c1cc(S(=O)(=O)c2ccc(F)c([N+](=O)[O-])c2)ccc1F` was run?
Answer: 98 % of control

Question: And the T/C (endpoint: mean survival time, dose: 12.5 mg/kg/injection, schedule: Q01DX009 (ip), vehicle: Klucel (hydroxypropylcellulose) (HPC))?
Answer: 98 % of control

Question: What about the T/C (endpoint: mean survival time, dose: 25.0 mg/kg/injection, schedule: Q01DX009 (ip), vehicle: Klucel (hydroxypropylcellulose) (HPC)) of the same molecule?
Answer: 98 % of control

Question: Which T/C (endpoint: mean survival time, dose: 50.0 mg/kg/injection, schedule: Q01DX009 (ip), vehicle: saline with Tween-80) does the source give for `Clc1ccc2c(NCCN3CCCCCC3)nc(C(Cl)(Cl)Cl)nc2c1` here?
Answer: 94 % of control

Question: What about the T/C (endpoint: mean survival time, dose: 50.0 mg/kg/injection, schedule: Q04DX003 (ip), vehicle: saline with Tween-80) of the same molecule?
Answer: 103 % of control

Question: What about the T/C [2] of the same molecule?
Answer: 98 % of control

Question: What about the T/C [3] of the same molecule?
Answer: 94 % of control

Question: And the T/C [4]?
Answer: 98 % of control

Question: And the T/C [5]?
Answer: 92 % of control

Question: What does the source list for `O=C1C=C(NS(=O)(=O)c2ccccc2)C(=O)c2ccccc21`?
Answer: T/C [2]: 101 % of control; T/C [3]: 101 % of control; T/C [4]: 97 % of control; T/C [5]: 95 % of control; T/C (endpoint: mean survival time, dose: 400.0 mg/kg/injection, schedule: Q01DX009 (ip), vehicle: saline with Tween-80): 97 % of control; T/C (endpoint: mean survival time, dose: 400.0 mg/kg/injection, schedule: Q04DX003 (ip), vehicle: saline with Tween-80): 89 % of control

Question: Which T/C (endpoint: mean survival time, dose: 50.0 mg/kg/injection, schedule: Q01DX009 (ip), vehicle: saline sonified) does the source give for `N#CO` here?
Answer: 100 % of control

Question: What about the T/C (endpoint: mean survival time, dose: 100.0 mg/kg/injection, schedule: Q01DX009 (ip), vehicle: saline sonified) of the same molecule?
Answer: 118 % of control

Question: And the T/C (endpoint: mean survival time, dose: 100.0 mg/kg/injection, schedule: Q04DX003 (ip), vehicle: saline)?
Answer: 98 % of control

Question: What about the T/C (endpoint: mean survival time, dose: 200.0 mg/kg/injection, schedule: Q04DX003 (ip), vehicle: saline) of the same molecule?
Answer: 112 % of control

Question: Which results are given for `CC(C)(C)N=C=N[N+](C)(C)Cc1ccccc1`?
Answer: T/C (endpoint: mean survival time, dose: 6.25 mg/kg/injection, schedule: Q01DX009 (ip), vehicle: saline): 95 % of control; T/C (endpoint: mean survival time, dose: 12.5 mg/kg/injection, schedule: Q01DX009 (ip), vehicle: saline): 98 % of control; T/C (endpoint: mean survival time, dose: 25.0 mg/kg/injection, schedule: Q01DX009 (ip), vehicle: saline): 111 % of control

Question: Which results are given for `O=C1C2CC=CC2C1(Cl)Cl` (configuration not stated)?
Answer: T/C (endpoint: mean survival time, dose: 75.0 mg/kg/injection, schedule: Q01DX001 (ip), vehicle: saline): 91 % of control; T/C (endpoint: mean survival time, dose: 150.0 mg/kg/injection, schedule: Q01DX001 (ip), vehicle: saline): 94 % of control; T/C (endpoint: mean survival time, dose: 300.0 mg/kg/injection, schedule: Q01DX001 (ip), vehicle: saline): 91 % of control

Question: How did the T/C (endpoint: median survival time, dose: 25.0 mg/kg/injection, schedule: Q01DX009 (ip), vehicle: Klucel (hydroxypropylcellulose) (HPC)) turn out when `O=C(NCc1ccco1)C1COc2ccccc2O1` (configuration not stated) was run?
Answer: 103 % of control

Question: What about the T/C (endpoint: median survival time, dose: 50.0 mg/kg/injection, schedule: Q01DX009 (ip), vehicle: Klucel (hydroxypropylcellulose) (HPC)) of the same molecule?
Answer: 101 % of control

Question: And the T/C (endpoint: median survival time, dose: 100.0 mg/kg/injection, schedule: Q01DX009 (ip), vehicle: Klucel (hydroxypropylcellulose) (HPC))?
Answer: 103 % of control

Question: Which T/C (endpoint: mean survival time, dose: 100.0 mg/kg/injection, schedule: Q04DX002 (ip), vehicle: saline with Tween-80) does the source give for `C=CCc1cc(O)c(CC=C)cc1O` here?
Answer: 95 % of control

Question: And the T/C (endpoint: mean survival time, dose: 200.0 mg/kg/injection, schedule: Q04DX002 (ip), vehicle: saline with Tween-80)?
Answer: 95 % of control
